The source of these data is article PMC9069370, “Integrated Design of a Membrane‐Lytic Peptide‐Based Intravenous Nanotherapeutic Suppresses Triple‐Negative Breast Cancer” (Advanced Science, 2022).

The subject of data set [1] is HMLER‐shEcad. The experiment in a line: cells. It is filed as cell-based, human. The text has this:
(§1) […], and MCF-10A cells were maintained in MEGM with supplements and growth factors bovine pituitary extract, hydrocortisone, human epidermal growth factor, insulin, and gentamicin/amphotericin-B.

The next data set relates to MCF‐10A. The experiment in a line: cells. It is filed as cell-based, human.
Source text: as §1

Data set [2] relates to HMLER‐shEcad tumorspheres. Nature of the data set: cells. The data set is classed as cell-based, human. The conditions noted are these: for IC50 / IC90: Homo sapiens; for IC50: 120 h, read-out: IC50 against HMLER‐shEcad tumorspheres; for IC90: read-out: IC90 against HMLER‐shEcad tumorspheres.
For a further data set, the system named is MCF‐10A mammospheres. Nature of the data set: Mammosphere viability assay (TOX8). The following applies: for D‐enantiomer average IC90 against MCF‐10A mammospheres: one average for d‐DHK and d‐EEK together. It is filed as cell-based, human.
Data set [3] deals with HMLER‐shEcad. Nature of the data set: Resistance formation after prolonged drug exposure, 2D culture. The data set is classed as cell-based, human. The following applies: Homo sapiens. The method, then: Cancer stem cells can survive treatment, gain resistance, and reseed tumors, presenting a major challenge for chemotherapy.^[ [2] ^] […] Drugs were added with medium every 3–4 days, maintaining smooth cell growth, and 125 000 cells were split into new T25 flasks with a total volume of 5 mL once per week.

The next data set concerns HMLER. The experiment in a line: cells. The data set is classed as cell-based, human.
Source text: as §1

The next data set concerns HEK293T. Nature of the data set: cells. The data set is classed as cell-based, human.
The next data set concerns U2OS. It is filed as cell-based, human. The conditions noted are these: 2D culture, MTT, 72 h incubation; library peptides n = 2; D-enantiomers and small molecules replicated six times; read-out: IC50 (µM) U2OS.
In another data set the test system is human red blood cells. The experiment in a line: Haemolysis (human red blood cells). The data set is classed as cell-based. The conditions noted are these: PBS, 37 °C, 1 h, one value for DHK, d‐DHK and d‐EEK together. The method, then: Fresh human red blood cells were obtained from Interstate Blood Bank, Inc., and thoroughly washed in PBS until the supernatant was clear. The peptide was serially diluted in PBS starting at a concentration of 200 µM. […] As a positive lysis control, 1% triton was used. […] After centrifugation, 10 µL of supernatant was transferred to 90 µL of ddH2O in a fresh 96‐well plate.

Setting [4] is: 2D culture, MTT, 72 h incubation, library peptides average of two independent experiments (n = 2), D-enantiomers and small molecules replicated six times, read-out: IC50 (µM) HMLER.
Setting [5] is: 2D culture, MTT, 72 h incubation, library peptides average of two independent experiments (n = 2), D-enantiomers and small molecules replicated six times, read-out: IC50 (µM) HMLER-shEcad.
Where [6] appears, read: non-cancerous cells, 2D culture, MTT, 72 h incubation, library peptides n = 2, D-enantiomers and small molecules replicated six times, read-out: IC50 (µM) MCF-10A.
The mark [7] stands for this setting: non-cancerous cells, 2D culture, MTT, 72 h incubation, library peptides n = 2, D-enantiomers and small molecules replicated six times, read-out: IC50 (µM) HEK293T.

Structures can show the parent of a compound that is named as a salt. Where two headings read alike, the source gives them in different places. Square brackets hold non-standard residues; d marks the D form. Peptide text beside a SMILES is read from it.

What is called IC90 is the concentration needed for an effect of 90%. In general, HC50 refers to the concentration giving 50% haemolysis. A low value points to more damage to red cells.

In the case of `COc1cccc2c1C(=O)c1c(O)c3c(c(O)c1C2=O)C[C@@](O)(C(=O)CO)C[C@@H]3O[C@H]1C[C@H](N)[C@H](O)[C@H](C)O1` [Doxorubicin, Doxorubicin hydrochloride, reference compound], in the data set with HMLER‐shEcad [1] (2D HMLER‐shEcad (Figure 3d,f), cells remained viable in the high micromolar range), the “IC90 in 2D assay” value is given as “could not be attained”. Further, the IC50 worked out at 0.0477 ± 0.0026 µM with HMLER‐shEcad [1] (Homo sapiens, read-out: IC50, HMLER-shEcad cell viability, 2D culture, co-incubation with 5 µM z-VAD-FMK); 0.0631 ± 0.0042 µM in the data set on HMLER‐shEcad [1] (Homo sapiens, read-out: IC50, HMLER-shEcad cell viability, 2D culture, co-incubation with 20 µM necrostatin-1); 0.0031 ± 0.0004 µM in the data set with HMLER‐shEcad [1] (Homo sapiens, 2D culture, read-out: IC50, HMLER-shEcad cell viability, compound alone); 43000 ± 6000 nM in [2] (3D multicellular spheroids, 5 days, TOX8 fluorescence read-out); 189 ± 68 nM in the data set on HMLER‐shEcad [3] (240 h, 2D HMLER‐shEcad after 10 days co‐incubation with 30 nM doxorubicin, read-out: IC50 of doxorubicin after prolonged doxorubicin exposure); 24 ± 2 nM in the data set with HMLER‐shEcad [3] (2D HMLER‐shEcad, vehicle, read-out: IC50 of doxorubicin, cells before/without doxorubicin exposure). Further, in the data set on MCF‐10A (2D assays), the “therapeutic window (fold IC50) in 2D assays” value was over 100 fold. In the data set on MCF‐10A (2D culture, ratio of IC50), the “selectivity for cancerous cells over non‐tumorigenic MCF‐10A” value is given as over 160 fold. In [2] (HMLER‐shEcad tumorspheres, at 133 µM), this compound gave a tumorsphere cell viability of over 15%. Besides, the IC90 in [2] (3D multicellular spheroids, reducing tumorsphere cell viability by 90%) is 138000 ± 11000 nM. Moreover, the “IC90 against MCF‐10A mammospheres” value with MCF‐10A mammospheres stood at 167000 ± 7000 nM. Moreover, in the data set on MCF‐10A mammospheres (3D spheroid assay), the “therapeutic window (fold IC50) in the 3D assay” value is on record as “≈ 3 fold”.

As to `CC[C@@H](C(=O)[C@@H](C)[C@@H](O)[C@H](C)[C@@H]1O[C@@H]([C@@H](CC)C(=O)O)CC[C@@H]1C)[C@H]1O[C@]2(C=C[C@@H](O)[C@]3(CC[C@@](C)([C@H]4CC[C@](O)(CC)[C@H](C)O4)O3)O2)[C@H](C)C[C@@H]1C` [Salinomycin, salinomycin, reference compound], the IC50 is 0.37 ± 0.08 µM with HMLER (Homo sapiens, 72 h, read-out: IC50 (µM) HMLER, 2D culture, MTT, 72 h incubation, library peptides average of two independent experiments (n = 2), D-enantiomers and small molecules replicated six times); 0.05 µM in the data set on HMLER (Homo sapiens, read-out: IC50 of salinomycin co‐administered with DHK, HMLER, with […] DHK); 0.4 ± 0.1 µM with HMLER (read-out: IC50 (µM) HMLER, 2D culture, MTT, 72 h incubation, library peptides average of two independent experiments (n = 2), D-enantiomers and small molecules replicated six times); 0.92 ± 0.28 µM with HMLER‐shEcad [1] (Homo sapiens, 72 h, read-out: IC50 (µM) HMLER-shEcad, 2D culture, MTT, 72 h incubation, library peptides average of two independent experiments (n = 2), D-enantiomers and small molecules replicated six times); 0.03 µM in the data set with HMLER‐shEcad [1] (Homo sapiens, read-out: IC50 of salinomycin co‐administered with DHK, HMLER‐shEcad, with […] DHK); 0.9 ± 0.3 µM with HMLER‐shEcad [1] (read-out: IC50 (µM) HMLER-shEcad, 2D culture, MTT, 72 h incubation, library peptides average of two independent experiments (n = 2), D-enantiomers and small molecules replicated six times). Also, the IC50 amounted to 9.76 ± 2.28 µM with MCF‐10A (Homo sapiens, MCF-10A, 72 h, read-out: IC50 (µM) MCF-10A, non-cancerous cells, 2D culture, MTT, 72 h incubation, library peptides n = 2, D-enantiomers and small molecules replicated six times); 1.7 µM in the data set on MCF‐10A (Homo sapiens, MCF-10A, read-out: IC50 of salinomycin co‐administered with DHK, MCF‐10A, with […] DHK); 9.7 ± 2.3 µM in the data set on MCF‐10A (read-out: IC50 (µM) MCF-10A, non-cancerous cells, 2D culture, MTT, 72 h incubation, library peptides n = 2, D-enantiomers and small molecules replicated six times); 0.41 ± 0.1 µM in the data set on HEK293T (Homo sapiens, HEK-293T, 72 h, read-out: IC50 (µM) HEK293T, non-cancerous cells, 2D culture, MTT, 72 h incubation, library peptides n = 2, D-enantiomers and small molecules replicated six times); 0.1 µM in the data set on HEK293T (Homo sapiens, HEK-293T, read-out: IC50 of salinomycin co‐administered with DHK, HEK293T, with […] DHK); 0.4 ± 0.1 µM in the data set on HEK293T (read-out: IC50 (µM) HEK293T, non-cancerous cells, 2D culture, MTT, 72 h incubation, library peptides n = 2, D-enantiomers and small molecules replicated six times). Further, in data set [2], the IC50 came to 22000 ± 5000 nM. The “increase in anticancer efficiency” value in the data set with HMLER (addition of 5 µM DHK) was 100 fold. The compound also returned a cancer cell viability in the data set on HMLER (with 5 µM DHK, at the lowest dose of salinomycin) of under 1%. Moreover, the “factor by which the dosage of salinomycin required to kill cells is reduced” value in the data set with HMLER (with […] DHK, both HMLER and HMLER‐shEcad) is given as 8–27. Also, in data set [2], the concentration for an effect of 90% (IC90) was 44000 ± 17000 nM. Moreover, the “IC90 against MCF‐10A mammospheres” value with MCF‐10A mammospheres was 34000 ± 20000 nM.

As to `CC(C)C[C@@H](NC(=O)CN)C(=O)N[C@H](CC(C)C)C(=O)N[C@H](CC(=O)O)C(=O)N[C@H](CC(C)C)C(=O)N[C@H](CC(C)C)C(=O)N[C@H](Cc1c[nH]cn1)C(=O)N[C@H](CC(C)C)C(=O)N[C@H](CC(C)C)C(=O)N[C@H](CC(C)C)C(=O)N[C@H](CCCCN)C(=O)N[C@H](C)C(=O)N[C@H](C)C(=O)NCC(=O)N[C@H](Cc1c[nH]c2ccccc12)C(N)=O` [d-DHK] (H-G[dL][dL][dD][dL][dL][dH][dL][dL][dL][dK][dA][dA]G[dW]-NH2), the IC50 in the data set on HMLER (setting [4]) was found to be 0.32 ± 0.07 µM; in the data set with HMLER‐shEcad [1] (setting [5]), 0.23 ± 0.04 µM; in the data set on HMLER‐shEcad [1] (one value printed for each pair of peptides, cell line not given, read-out: IC50 (anticancer activity)), 0.3 ± 0.1 µM; in the data set with MCF‐10A (setting [6]), 0.55 ± 0.06 µM; in the data set on U2OS, 1.24 ± 0.03 µM; in the data set with HEK293T (setting [7]), 1.55 ± 0.37 µM. Also, the “D‐enantiomer average IC90 against MCF‐10A mammospheres” value with MCF‐10A mammospheres turned out to be 8000 ± 5000 nM. The compound also displayed a concentration for 50% haemolysis (HC50) in the data set with human red blood cells of 14 ± 5 µM.

On to `CC(C)C[C@@H](NC(=O)CN)C(=O)N[C@H](CC(C)C)C(=O)N[C@H](CCC(=O)O)C(=O)N[C@H](CC(C)C)C(=O)N[C@H](CC(C)C)C(=O)N[C@H](CCC(=O)O)C(=O)N[C@H](CC(C)C)C(=O)N[C@H](CC(C)C)C(=O)N[C@H](CC(C)C)C(=O)N[C@H](CCCCN)C(=O)N[C@H](C)C(=O)N[C@H](C)C(=O)NCC(=O)N[C@H](Cc1c[nH]c2ccccc12)C(N)=O` [d-EEK] (H-G[dL][dL][dE][dL][dL][dE][dL][dL][dL][dK][dA][dA]G[dW]-NH2), for which the IC50 was 0.29 ± 0.01 µM in the data set with HMLER (setting [4]); 0.29 ± 0.01 µM in the data set on HMLER‐shEcad [1] (setting [5]); 0.3 ± 0.1 µM in the data set with HMLER‐shEcad [1] (2D culture, read-out: IC50, HMLER-shEcad cell viability, compound alone); 0.3 ± 0.1 µM in the data set on HMLER‐shEcad [1] (read-out: IC50, HMLER-shEcad cell viability, together with 5 µM caspase inhibitor z-VAD-FMK, 2D culture, co-incubation with 5 µM z-VAD-FMK); 1.07 ± 0.1 µM in the data set on MCF‐10A (setting [6]); 4.78 ± 0.02 µM in the data set on U2OS. In the data set with HEK293T (setting [7]), the IC50 was 2.82 ± 0.07 µM. The “D‐enantiomer average IC90 against MCF‐10A mammospheres” value with MCF‐10A mammospheres is 8000 ± 5000 nM. Further, the HC50 with human red blood cells is 14 ± 5 µM.
